According to paper PMC6370995, “Phase I study of PF‐04895162, a Kv7 channel opener, reveals unexpected hepatotoxicity in healthy subjects, but not rats or monkeys: clinical evidence of disrupted bile acid homeostasis” (Pharmacology Research & Perspectives, 2019):
Where two headings read alike, the source gives them in different places.

Key:
[1] = Phase 1 clinical study in healthy subjects: plasma pharmacokinetics and food effect; type: in vivo, human
Description: A randomized, double‐blind, third‐party open (i.e., subject and Investigator blind, and Sponsor open), placebo‐controlled study was conducted in healthy subjects to investigate the safety, tolerability, and pharmacokinetics of single and multiple oral doses of PF‐04895162 and to characterize the effect of food on the pharmacokinetics of a single oral dose of PF‐04895162. The study was conducted in accordance with the International Conference on Harmonization guideline for Good Clinical Practice and the principles of the Declaration of Helsinki and was approved by the local independent ethics committee. All subjects gave written informed consent prior to participation in the study. The study was planned as a parallel group, dose escalation study in four cohorts of 10 subjects each, however, the study was terminated prematurely and only Cohort 1 was conducted. After an initial screening visit to confirm eligibility, subjects in Cohort 1 (Figure 1) received single oral doses of 300 mg PF‐04895162 in Period 1 (under fasting conditions) and Period 2 (under fed conditions), and then 300 mg BID PF‐04895162 or placebo for 14 days (under fasting conditions) in Period 3 (the final dose was administered on the morning of Day 14). In Period 2, subjects were given a high‐fat breakfast 25 minutes prior to dosing which had to be consumed within 20 minutes. In all periods, subjects were fasted for at least 8 hours prior to morning dosing (except for breakfast in Period 2), and received lunch and dinner approximately 4 and 9‐10 hours after the morning dose, respectively. In Period 3, subjects were randomized so that eight subjects received PF‐04895162 and two subjects received placebo. The single doses in Periods 1 and 2, and the first dose in Period 3 were each separated by 3 days. A follow‐up visit was conducted 7‐14 days after the final dose. The ClinicalTrials.gov identifier was NCT01691274.
Safety was assessed throughout the study by monitoring adverse events, vital signs (blood pressure, pulse rate, and body temperature), 12‐lead ECGs, and physical examinations. Blood samples for safety laboratory assessments were collected prior to and 24 hours after the first single dose of PF‐04895162 (Day 1 and 2 of Period 1), and in Period 3 on Days 7, 14, and 21 (additional samples were also collected in response to emerging safety data). The Columbia suicide severity rating scale (C‐SSRS) was also conducted at screening or baseline and at the follow‐up visit. Blood samples for pharmacokinetic profiles of PF‐04895162 were collected from predose to 72 hours after each single dose (Periods 1 and 2), and up to 12 and 48 hours after morning dosing on Days 7 and 14, respectively, in Period 3. Additional trough samples were also collected on Days 5, 6, 12, and 13 of Period 3.
The sample size of 10 subjects per cohort was chosen based on practical considerations and was considered sufficient to provide adequate safety information at each dose level. To assess the effect of food on the pharmacokinetics of PF‐04895162, natural log transformed area under the plasma concentration‐time curve (AUC) from time 0 to the last measured time point (AUClast), AUC from time 0 extrapolated to infinity (AUCinf) and maximum plasma concentration (Cmax) were analyzed using a mixed effects model with treatment (fed or fasted) as a fixed effect and subject as a random effect. Estimates of the adjusted mean differences (Fed ‐ Fasted) and corresponding 90% confidence intervals (CIs) were obtained from the model. The adjusted mean differences and 90% CIs for the differences were exponentiated to provide estimates of the ratio of adjusted geometric means (Fed/Fasted) and 90% CIs for the ratios. No formal hypothesis testing was conducted.

[2] = THLE 72 hour cytotoxicity assay based on ATP depletion; type: cell-based; details: human, THLE cells, after 72 hours
From the text: […]

[3] = ADME of single oral dose of 14C-labeled parent in male rats; type: in vivo, rat; details: single oral dose (target 15 mg/kg) 14C-labeled
From the text: A summary of liver effects along with a detailed synopsis of each nonclinical study that was used to support the Investigational New Drug Application filing along with longer term studies can be found in the supplemental information associated with this article. In brief, this compound advanced into clinical studies without any histopathological evidence of liver injury or reproducible transaminase elevations in rats and monkeys. The addition of total bile acid analysis in nonclinical safety assessment studies, although germane to this investigation retrospectively, is not routine.26 Absorption, distribution, metabolism, and excretion of parent and metabolites were examined in albino and pigmented male rats after administration of a single oral dose (target 15 mg/kg) of ^14C‐labeled parent. Elimination of radioactivity occurred mostly within the first 24 hours after dosing with approximately 71 and 22% of the administered dose excreted in feces and urine, respectively. An equivalent human study was not performed.

[4] = 300 mg single dose, high-fat breakfast vs fasted

Structure (SMILES): O=C(Cc1ccc(F)cc1)Nn1c(C2CC2)nc2cc(F)ccc2c1=O [PF‐04895162, N‐(2‐cyclopropyl‐7‐fluoro‐4‐oxoquinazolin‐3(4H)‐yl)‐2‐(4‐fluorophenyl)ethanamide]
- AUCinf, Ratio (90% Confidence Interval) of Adjusted Means, Fed vs Fasted [1, 4]: 113.27 (102.99, 124.58) %
- AUClast, Ratio (90% Confidence Interval) of Adjusted Means, Fed vs Fasted [1, 4]: 116.85 (106.90, 127.73) %
- Cmax, Ratio (90% Confidence Interval) of Adjusted Means, Fed vs Fasted [1, 4]: 202.92 (178.28, 230.95) %
- AUC ([1]; human, plasma, oral, 300 mg, 300 mg BID, Day 7, subject with the highest ALT values, read-out: AUCtau, Subject 8): 93 µg·h/mL
- Cmax ([1]; human, plasma, oral, 300 mg, 300 mg BID, Day 7, subject with the highest ALT values, read-out: Cmax, Subject 8 (converted)): 10.8 µg/mL
- AUC ([1]; human, plasma, oral, 300 mg, Period 1, 300 mg fasted, Day 1 (N = 10), 12 h interval, geometric mean (%CV), read-out: AUCtau): 40.8 µg·h/mL
- half-life ([1]; human, plasma, oral, 300 mg, Period 1, 300 mg fasted, Day 1 (N = 10), arithmetic mean ± SD, read-out: t½, terminal half-life (converted)): 7.88 ± 3.2 h
- Cmax ([1]; human, plasma, oral, 300 mg, Period 1, 300 mg fasted, Day 1 (N = 10), geometric mean (%CV), read-out: Cmax): 4.51 µg/mL
- Tmax ([1]; human, plasma, oral, 300 mg, Period 1, 300 mg fasted, Day 1 (N = 10), median (range)): 5 h
- Cmax ([1]; human, plasma, oral, 300 mg, Period 1, 300 mg fasted, Day 1 (N = 10), total concentration, read-out: Cmax): 12.7 µM
- half-life ([1]; human, plasma, oral, 300 mg, Period 2, 300 mg fed, Day 1 (N = 10), arithmetic mean ± SD, read-out: t½, terminal half-life (converted)): 5.21 ± 1.17 h
- Cmax ([1]; human, plasma, oral, 300 mg, Period 2, 300 mg fed, Day 1 (N = 10), geometric mean (%CV), read-out: Cmax): 9.15 µg/mL
- Tmax ([1]; human, plasma, oral, 300 mg, Period 2, 300 mg fed, Day 1 (N = 10), median (range)): 4 h
- Cmax ([1]; human, plasma, oral, 300 mg, Period 2, 300 mg fed, Day 1 (N = 10), total concentration, read-out: Cmax): 25.8 µM
- Cmax at 7 day ([1]; human, plasma, oral, 300 mg, Period 3, 300 mg BID fasted, Day 7 (N = 7), geometric mean (%CV)): 9.43 µg/mL
- AUC ([1]; human, plasma, oral, 300 mg, Period 3, 300 mg BID fasted, Day 7 (N = 7), geometric mean (%CV), read-out: AUCtau): 85.2 µg·h/mL
- Tmax at 7 day ([1]; human, plasma, oral, 300 mg, Period 3, 300 mg BID fasted, Day 7 (N = 7), median (range)): 2 h
- Cmax at 7 day ([1]; human, plasma, oral, 300 mg, Period 3, 300 mg BID fasted, Day 7 (N = 7), total concentration): 26.5 µM
- half-life at 14 day ([1]; human, plasma, oral, 300 mg, Period 3, 300 mg BID fasted, Day 14 (N = 7), arithmetic mean ± SD, read-out: t½, terminal half-life (converted)): 8.04 ± 3.29 h
- Cmax at 14 day ([1]; human, plasma, oral, 300 mg, Period 3, 300 mg BID fasted, Day 14 (N = 7), geometric mean (%CV)): 8.38 µg/mL
- AUC ([1]; human, plasma, oral, 300 mg, Period 3, 300 mg BID fasted, Day 14 (N = 7), geometric mean (%CV), read-out: AUCtau): 71.2 µg·h/mL
- Tmax at 14 day ([1]; human, plasma, oral, 300 mg, Period 3, 300 mg BID fasted, Day 14 (N = 7), median (range)): 2 h
- Cmax at 14 day ([1]; human, plasma, oral, 300 mg, Period 3, 300 mg BID fasted, Day 14 (N = 7), total concentration): 23.6 µM
- half-life ([1]; human, plasma, oral, 300 mg, similar after single and multiple dosing, 300 mg, read-out: Mean terminal half-life (converted)): ~8 h
- IC50 at 72 h [2]: ~192 µM
- administered dose excreted in feces [3]: approximately 71%
- administered dose excreted in urine [3]: ~22%
